Our source for the relative viability values is the supplement of paper PMC10307832.

Holding throughout (experiment): relative viability (nuclei count vs DMSO), 5 days (fraction); higher = more cells survive
Compound in test [1]: O=C(Nc1c[nH]nc1-c1nc2ccc(CN3CCOCC3)cc2[nH]1)NC1CC1 [AT9283] + Cc1cc(Nc2cc(N3CCN(C)CC3)nc(Sc3ccc(NC(=O)C4CC4)cc3)n2)n[nH]1 [Tozasertib] (partner 0.1 µM)
A digest of the protocol:
(§1)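 Lung cancer cell lines, seeded in 1536-well plates, were treated the following day by pin tool with a single drug or with five library-drug doses (not always all listed) in √10 steps on top of a fixed anchor-drug dose. Cells were fixed and nuclei stained in one step after 5 days, and nuclei were counted. Relative viability is the nuclei count for treated wells divided by that for vehicle wells, reported as medians of duplicate plates.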

Compound in test [2]: O=C(Nc1c[nH]nc1-c1nc2ccc(CN3CCOCC3)cc2[nH]1)NC1CC1 [AT9283] + O=C(CCCCCCC(=O)Nc1ccccc1)NO [Vorinostat] (partner 1 µM)
In a few lines:
as §1

Compound in test [3]: O=C(Nc1c[nH]nc1-c1nc2ccc(CN3CCOCC3)cc2[nH]1)NC1CC1 [AT9283] + Nc1nc2[nH]cc(CCc3ccc(C(=O)N[C@@H](CCC(=O)O)C(=O)O)cc3)c2c(=O)[nH]1 [Pemetrexed] (partner 0.2 µM)
A digest of the protocol:
as §1

Compound in test [4]: C#Cc1cccc(Nc2ncnc3cc(OCCOC)c(OCCOC)cc23)c1 [Erlotinib] + COc1cc2c(Oc3ccc(NC(=O)C4(C(=O)Nc5ccc(F)cc5)CC4)cc3F)ccnc2cc1OCCCN1CCOCC1 [Foretinib] (partner 0.25 µM)
A digest of the protocol:
as §1

Compound in test [5]: C#Cc1cccc(Nc2ncnc3cc(OCCOC)c(OCCOC)cc23)c1 [Erlotinib] + Nc1nc2[nH]cc(CCc3ccc(C(=O)N[C@@H](CCC(=O)O)C(=O)O)cc3)c2c(=O)[nH]1 [Pemetrexed] (partner 0.2 µM)
A digest of the protocol: as §1

As to NCI-H1944, the relative viability in test [1] (first compound 0.003 µM) amounted to 0.256; in test [1] (first compound 0.03 µM) it was 0.257; in test [1] (first compound 0.09487 µM) it was 0.23; in test [1] (first compound 0.3 µM) it was 0.224; in test [2] (first compound 0.003 µM) it was 0.532; in test [2] (first compound 0.03 µM), 0.274. Besides, the relative viability in test [2] (first compound 0.09487 µM) worked out at 0.214; in test [2] (first compound 0.3 µM), 0.205; in test [3] (first compound 0.003 µM) it was 0.627; in test [3] (first compound 0.03 µM), 0.5; in test [3] (first compound 0.09487 µM) it was 0.232; in test [3] (first compound 0.3 µM) it was 0.191. Further, the relative viability turned out to be 0.833 in test [4] (first compound 0.02 µM); 0.54 in test [4] (first compound 0.2 µM); 0.579 in test [4] (first compound 0.6325 µM); 0.56 in test [4] (first compound 2 µM); 0.586 in test [5] (first compound 0.02 µM); 0.506 in test [5] (first compound 0.2 µM). In addition, the results for the relative viability in test [5] (first compound 0.6325 µM) and in test [5] (first compound 2 µM) were 0.536 and 0.358, respectively.

Regarding NCI-H1355, the relative viability in test [1] (first compound 0.003 µM) is 0.518; in test [1] (first compound 0.03 µM), 0.464; in test [1] (first compound 0.09487 µM) it was 0.224; in test [1] (first compound 0.3 µM) it was 0.218; in test [2] (first compound 0.003 µM) it was 0.602; in test [2] (first compound 0.03 µM), 0.452. The relative viability in test [2] (first compound 0.09487 µM) was found to be 0.388; in test [2] (first compound 0.3 µM), 0.169; in test [3] (first compound 0.003 µM), 0.989; in test [3] (first compound 0.03 µM), 1.02; in test [3] (first compound 0.09487 µM) it was 0.719; in test [3] (first compound 0.3 µM), 0.301. For the same cell line, the relative viability in test [4] (first compound 0.02 µM) amounted to 1.01; in test [4] (first compound 0.2 µM) it was 0.821; in test [4] (first compound 0.6325 µM) it was 0.877; in test [4] (first compound 2 µM), 0.781; in test [5] (first compound 0.02 µM), 1.06; in test [5] (first compound 0.2 µM), 0.995. Besides, in test [5] (first compound 0.6325 µM), the relative viability is 1.03.

With HCC-827, the relative viability in test [1] (first compound 0.003 µM) came to 0.409; in test [1] (first compound 0.03 µM), 0.374; in test [1] (first compound 0.09487 µM), 0.337; in test [1] (first compound 0.3 µM), 0.257; in test [2] (first compound 0.003 µM) it was 0.612; in test [2] (first compound 0.03 µM), 0.36. For the same cell line, the relative viability in test [2] (first compound 0.09487 µM) stood at 0.363; in test [2] (first compound 0.3 µM), 0.248; in test [3] (first compound 0.003 µM) it was 0.281; in test [3] (first compound 0.03 µM) it was 0.247; in test [3] (first compound 0.09487 µM), 0.236; in test [3] (first compound 0.3 µM), 0.207. Further, the relative viability in test [4] (first compound 0.02 µM) was 0.263; in test [4] (first compound 0.2 µM), 0.158; in test [4] (first compound 0.6325 µM), 0.154; in test [4] (first compound 2 µM), 0.135; in test [5] (first compound 0.02 µM), 0.182; in test [5] (first compound 0.2 µM), 0.147. Moreover, the relative viability stood at 0.139 in test [5] (first compound 0.6325 µM) and 0.156 in test [5] (first compound 2 µM).

For RERF-LC-KJ, the relative viability in test [1] (first compound 0.003 µM) came out at 0.42; in test [1] (first compound 0.03 µM), 0.242; in test [1] (first compound 0.09487 µM) it was 0.203; in test [1] (first compound 0.3 µM), 0.247; in test [2] (first compound 0.003 µM), 0.636; in test [2] (first compound 0.03 µM), 0.473. Also, the relative viability in test [2] (first compound 0.09487 µM) worked out at 0.346; in test [2] (first compound 0.3 µM) it was 0.264; in test [3] (first compound 0.003 µM) it was 0.465; in test [3] (first compound 0.03 µM), 0.36; in test [3] (first compound 0.09487 µM) it was 0.253; in test [3] (first compound 0.3 µM), 0.225. Besides, the relative viability stood at 0.875 in test [4] (first compound 0.02 µM); 0.834 in test [4] (first compound 0.2 µM); 0.803 in test [4] (first compound 0.6325 µM); 0.715 in test [4] (first compound 2 µM); 0.461 in test [5] (first compound 0.02 µM); 0.457 in test [5] (first compound 0.2 µM). Further, the relative viability is 0.444 in test [5] (first compound 0.6325 µM) and 0.44 in test [5] (first compound 2 µM).

NCI-H2228: the relative viability amounted to 0.333 in test [1] (first compound 0.003 µM); 0.199 in test [1] (first compound 0.03 µM); 0.142 in test [1] (first compound 0.09487 µM); 0.138 in test [1] (first compound 0.3 µM); 0.655 in test [2] (first compound 0.003 µM); 0.277 in test [2] (first compound 0.03 µM). Besides, the relative viability in test [2] (first compound 0.09487 µM) is 0.133; in test [2] (first compound 0.3 µM), 0.103; in test [3] (first compound 0.003 µM) it was 0.337; in test [3] (first compound 0.03 µM), 0.244; in test [3] (first compound 0.09487 µM) it was 0.181; in test [3] (first compound 0.3 µM), 0.16. The relative viability in test [4] (first compound 0.02 µM) amounted to 0.897; in test [4] (first compound 0.2 µM), 0.885; in test [4] (first compound 0.6325 µM), 0.946; in test [4] (first compound 2 µM) it was 0.815; in test [5] (first compound 0.02 µM), 0.335; in test [5] (first compound 0.2 µM), 0.295. For the same cell line, the relative viability in test [5] (first compound 0.6325 µM) was 0.362; in test [5] (first compound 2 µM) it was 0.337.

As to LK-2, the relative viability in test [1] (first compound 0.003 µM) turned out to be 0.174; in test [1] (first compound 0.03 µM), 0.225; in test [1] (first compound 0.09487 µM), 0.172; in test [1] (first compound 0.3 µM) it was 0.209; in test [2] (first compound 0.003 µM), 0.282; in test [2] (first compound 0.03 µM), 0.185. Besides, the relative viability in test [2] (first compound 0.09487 µM) turned out to be 0.146; in test [2] (first compound 0.3 µM), 0.138; in test [3] (first compound 0.003 µM), 0.196; in test [3] (first compound 0.03 µM) it was 0.135; in test [3] (first compound 0.09487 µM) it was 0.136; in test [3] (first compound 0.3 µM) it was 0.105. Moreover, the relative viability in test [4] (first compound 0.02 µM) is 1.24; in test [4] (first compound 0.2 µM), 0.718; in test [4] (first compound 0.6325 µM) it was 1.46; in test [4] (first compound 2 µM), 1.23; in test [5] (first compound 0.02 µM), 0.259; in test [5] (first compound 0.2 µM), 0.278. The relative viability in test [5] (first compound 0.6325 µM) came to 0.318; in test [5] (first compound 2 µM), 0.235.

As for NCI-H520, the relative viability amounted to 0.48 in test [1] (first compound 0.003 µM); 0.435 in test [1] (first compound 0.03 µM); 0.423 in test [1] (first compound 0.09487 µM); 0.251 in test [1] (first compound 0.3 µM); 0.56 in test [2] (first compound 0.003 µM); 0.271 in test [2] (first compound 0.03 µM). Further, the relative viability in test [2] (first compound 0.09487 µM) came to 0.223; in test [2] (first compound 0.3 µM) it was 0.235; in test [3] (first compound 0.003 µM) it was 0.702; in test [3] (first compound 0.03 µM), 0.302; in test [3] (first compound 0.09487 µM) it was 0.303; in test [3] (first compound 0.3 µM) it was 0.198. The relative viability in test [4] (first compound 0.02 µM) was 0.803; in test [4] (first compound 0.2 µM) it was 0.926; in test [4] (first compound 0.6325 µM), 0.749; in test [4] (first compound 2 µM), 0.745; in test [5] (first compound 0.02 µM), 0.847; in test [5] (first compound 0.2 µM), 0.749. For the same cell line, the relative viability in test [5] (first compound 2 µM) amounted to 0.609.
